Laboratory results as given in ChEMBL document CHEMBL1158272, “Novel antiplatelet constituents from formosan moraceous plants” (J Nat Prod, 1996).
Values after ≈ are worked out from the molar mass of the structure shown.

Key:
[1] = Antiplatelet activity against rabbit platelets assessed as arachidonic acid-induced platelet aggregation at <100 uM by turbidimetric method; type: functional, Oryctolagus cuniculus
[2] = Antiplatelet activity against rabbit platelets assessed as collagen-induced platelet aggregation at <100 uM by turbidimetric method; type: functional, Oryctolagus cuniculus
[3] = Antiplatelet activity against rabbit platelets assessed as platelet-activating facto-induced platelet aggregation at <100 uM by turbidimetric method; type: functional, Oryctolagus cuniculus
[4] = Antiplatelet activity against rabbit platelets assessed as thrombin-induced platelet aggregation at <100 uM by turbidimetric method; type: functional, Oryctolagus cuniculus
[5] = Antiplatelet activity against rabbit platelets assessed as arachidonic acid-induced platelet aggregation at 100 uM by turbidimetric method; type: functional, Oryctolagus cuniculus
[6] = Antiplatelet activity against rabbit platelets assessed as collagen-induced platelet aggregation at 100 uM by turbidimetric method; type: functional, Oryctolagus cuniculus
[7] = Antiplatelet activity against rabbit platelets assessed as platelet-activating facto-induced platelet aggregation at 100 uM by turbidimetric method; type: functional, Oryctolagus cuniculus
[8] = Antiplatelet activity against rabbit platelets assessed as thrombin-induced platelet aggregation at 100 uM by turbidimetric method; type: functional, Oryctolagus cuniculus
[9] = Antiplatelet activity against rabbit platelets assessed as arachidonic acid-induced platelet aggregation by turbidimetric method; type: functional, cell-based; settings: Oryctolagus cuniculus
[10] = Antiplatelet activity against rabbit platelets assessed as collagen-induced platelet aggregation by turbidimetric method; type: functional, cell-based; settings: Oryctolagus cuniculus
[11] = Antiplatelet activity against human platelets in platelet rich plasma assessed as adrenaline-induced platelet aggregation at 450 uM pretreated 3 mins before adrenaline challenge by turbidimetric method; type: functional
[12] = Inhibition of ram seminal vesicle cyclooxygenase pretreated 2 mins before arachidonate substrate addition; type: tissue-based, Ovis aries
[13] = Antiplatelet activity against rabbit platelets assessed as collagen-induced platelet aggregation at 60 uM by turbidimetric method; type: functional, Oryctolagus cuniculus
[14] = Antiplatelet activity against rabbit platelets assessed as platelet-activating facto-induced platelet aggregation at 60 uM by turbidimetric method; type: functional, Oryctolagus cuniculus
[15] = Antiplatelet activity against rabbit platelets assessed as arachidonic acid-induced platelet aggregation at 15 uM by turbidimetric method; type: functional, Oryctolagus cuniculus
[16] = Antiplatelet activity against rabbit platelets assessed as collagen-induced platelet aggregation at 15 uM by turbidimetric method; type: functional, Oryctolagus cuniculus
[17] = Antiplatelet activity against rabbit platelets assessed as platelet-activating facto-induced platelet aggregation by turbidimetric method; type: functional, cell-based; settings: Oryctolagus cuniculus
[18] = Antiplatelet activity against human platelets in platelet rich plasma assessed as adrenaline-induced platelet aggregation at 300 uM pretreated 3 mins before adrenaline challenge by turbidimetric method; type: functional
[19] = Antiplatelet activity against rabbit platelets assessed as arachidonic acid-induced platelet aggregation at 300 uM by turbidimetric method; type: functional, Oryctolagus cuniculus
[20] = Antiplatelet activity against rabbit platelets assessed as collagen-induced platelet aggregation at 300 uM by turbidimetric method; type: functional, Oryctolagus cuniculus
[21] = Antiplatelet activity against rabbit platelets assessed as platelet-activating facto-induced platelet aggregation at 300 uM by turbidimetric method; type: functional, Oryctolagus cuniculus
[22] = Antiplatelet activity against rabbit platelets assessed as thrombin-induced platelet aggregation at 300 uM by turbidimetric method; type: functional, Oryctolagus cuniculus
[23] = Antiplatelet activity against human platelets in platelet rich plasma assessed as adrenaline-induced platelet aggregation at 150 uM pretreated 3 mins before adrenaline challenge by turbidimetric method; type: functional
[24] = Antiplatelet activity against human platelets in platelet rich plasma assessed as adrenaline-induced platelet aggregation at 100 uM pretreated 3 mins before adrenaline challenge by turbidimetric method; type: functional
[25] = Antiplatelet activity against rabbit platelets assessed as arachidonic acid-induced platelet aggregation at 50 uM by turbidimetric method; type: functional, Oryctolagus cuniculus
[26] = Antiplatelet activity against rabbit platelets assessed as collagen-induced platelet aggregation at 50 uM by turbidimetric method; type: functional, Oryctolagus cuniculus
[27] = Antiplatelet activity against rabbit platelets assessed as platelet-activating facto-induced platelet aggregation at 50 uM by turbidimetric method; type: functional, Oryctolagus cuniculus
[28] = Antiplatelet activity against rabbit platelets assessed as thrombin-induced platelet aggregation at 50 uM by turbidimetric method; type: functional, Oryctolagus cuniculus
[29] = Antiplatelet activity against rabbit platelets assessed as arachidonic acid-induced platelet aggregation at 20 uM by turbidimetric method; type: functional, Oryctolagus cuniculus
[30] = Antiplatelet activity against rabbit platelets assessed as collagen-induced platelet aggregation at 20 uM by turbidimetric method; type: functional, Oryctolagus cuniculus
[31] = Antiplatelet activity against rabbit platelets assessed as platelet-activating facto-induced platelet aggregation at 20 uM by turbidimetric method; type: functional, Oryctolagus cuniculus
[32] = Antiplatelet activity against rabbit platelets assessed as thrombin-induced platelet aggregation at 20 uM by turbidimetric method; type: functional, Oryctolagus cuniculus
[33] = Antiplatelet activity against rabbit platelets assessed as arachidonic acid-induced platelet aggregation at 30 uM by turbidimetric method; type: functional, Oryctolagus cuniculus
[34] = Antiplatelet activity against rabbit platelets assessed as collagen-induced platelet aggregation at 30 uM by turbidimetric method; type: functional, Oryctolagus cuniculus
[35] = Antiplatelet activity against rabbit platelets assessed as platelet-activating facto-induced platelet aggregation at 30 uM by turbidimetric method; type: functional, Oryctolagus cuniculus
[36] = Antiplatelet activity against human platelets in platelet rich plasma assessed as adrenaline-induced platelet aggregation at 50 uM pretreated 3 mins before adrenaline challenge by turbidimetric method; type: functional

Structure (SMILES): CC(=O)Oc1cc2c(cc1OC(C)=O)-c1oc3c(CC=C(C)C)c4c(c(O)c3c(=O)c1C(C=C(C)C)O2)C=CC(C)(C)O4 (stereo unspecified) [CYCLOHETERPHYLLIN DIACETATE]
- Activity [1]: 83.4%
- Activity [2]: 4.9%
- Activity [3]: 86%
- Activity [4]: 91.3%

Structure (SMILES): CC(C)=CCc1c(-c2cc(O)c(O)cc2O)oc2c(CC=C(C)C)c3c(c(O)c2c1=O)C=CC(C)(C)O3 [HETEROPHYLLIN]
- Activity [5]: 0%
- Activity [6]: 0%
- Activity [7]: 32%
- Activity [8]: 80.2%
- IC50 [9]: 49.8 µM
- IC50 [10]: 48.7 µM

Structure (SMILES): CC(C)=CCc1cc(C(=O)/C=C/c2ccc(O)c(O)c2)c(O)cc1O [BROUSSOCHALCONE A]
- Activity [11]: 40.1%
- IC50 [12]: 19.4 mg/L (≈ 57 µM)
- Activity [13]: 0%
- Activity [14]: 67.8%
- Activity [15]: 0%
- Activity [16]: 55.1%
- IC50 [9]: 6.8 µM
- IC50 [10]: 22.4 µM
- IC50 [17]: 119 µM
- Activity [18]: 74%

Structure (SMILES): COc1cc(O)c2c(=O)cc(-c3ccc(O)cc3O)oc2c1CC=C(C)C [ARTOCARPETIN A]
- Activity [19]: 61.8%
- Activity [20]: 46.8%
- Activity [21]: 59.8%
- Activity [22]: 80.4%

Structure (SMILES): CC(=O)Oc1cc2c(cc1OC(C)=O)-c1oc3c(CC=C(C)C)c4c(c(OC(C)=O)c3c(=O)c1C(C=C(C)C)O2)C=CC(C)(C)O4 (stereo unspecified) [CYCLOHETERPHYLLIN PERACETATE]
- Activity [1]: 74%
- Activity [2]: 73%
- Activity [3]: 78.3%
- Activity [4]: 91%

Structure (SMILES): CC(C)=CCc1cc(-c2oc3c(CC=C(C)C)c(O)cc(O)c3c(=O)c2O)ccc1O [BROUSSOFLAVONOL F]
- IC50 [12]: 17.5 mg/L (≈ 41.4 µM)
- Activity [5]: 0%
- Activity [6]: 0%
- Activity [7]: 84.8%
- Activity [8]: 93.1%
- IC50 [9]: 16.9 µM

Structure (SMILES): CC(C)=CCc1c([C@@H]2CCc3ccc(O)cc3O2)cc2c(c1O)OC(C)(C)C=C2 [KAZINOL B]
- Activity [23]: 27.6%
- Activity [24]: 27.9%
- IC50 [12]: 155.3 mg/L (≈ 396 µM)
- Activity [25]: 0%
- Activity [26]: 4%
- Activity [27]: 42.6%
- Activity [28]: 79.8%
- IC50 [9]: 32.6 µM
- Activity [18]: 23.1%

Structure (SMILES): COc1cc2oc(-c3ccc(O)cc3O)c(CC=C(C)C)c(=O)c2c(O)c1/C=C/C(C)C [ARTOCARPIN]
- Activity [29]: 54.8%
- Activity [30]: 84%
- Activity [31]: 76%
- Activity [32]: 87.3%

Structure (SMILES): COc1cc(O)c2c(c1)O[C@H](c1c(OC)cc(OC)cc1OC)CC2=O
- Activity [19]: 27.9%
- Activity [20]: 66.1%
- Activity [21]: 81%
- Activity [22]: 83.1%

Structure (SMILES): COc1cc(O)c2c(=O)cc(-c3ccc(O)cc3O)oc2c1 [ARTOCARPETIN]
- Activity [19]: 0%
- Activity [20]: 73.8%
- Activity [21]: 85.7%
- Activity [22]: 88.2%
- IC50 [9]: 95.9 µM

Structure (SMILES): CC(C)=CCc1cc([C@@H]2CCc3ccc(O)cc3O2)c(CC=C(C)C)c(O)c1O [KAZINOL A]
- Activity [33]: 0%
- Activity [34]: 0%
- Activity [35]: 65.8%
- IC50 [9]: 11.4 µM
- IC50 [10]: 20.7 µM
- IC50 [17]: 54.6 µM

Structure (SMILES): COc1cc(OC)c([C@@H]2CC(=O)c3c(O)cc(OC)c(CC=C(C)C)c3O2)c(OC)c1
- Activity [19]: 81.5%
- Activity [20]: 68.9%
- Activity [21]: 84.5%
- Activity [22]: 85.7%

Structure (SMILES): CC(C)=CCc1c2c(c(O)c3c(=O)c4c(oc13)-c1cc(O)c(O)cc1OC4C=C(C)C)C=CC(C)(C)O2 (stereo unspecified) [CYCLOHETERPHYLLIN]
- Activity [23]: 55.1%
- Activity [24]: 61.6%
- IC50 [12]: 26.1 mg/L (≈ 51.9 µM)
- Activity [19]: 0%
- Activity [20]: 33.8%
- Activity [21]: 4.5%
- Activity [22]: 82.4%
- IC50 [9]: 10.9 µM
- Activity [18]: 35.5%

Structure (SMILES): COc1ccc2c(c1)c(CC(=O)O)c(C)n2C(=O)c1ccc(Cl)cc1 [INDOMETHACIN]
- IC50 [12]: 0.7 mg/L (≈ 1.96 µM)

Structure (SMILES): COc1ccc2c(c1)OC(C=C(C)C)c1c-2oc2cc(O)c(/C=C/C(C)C)c(O)c2c1=O (stereo unspecified) [CYCLOARTOCARPIN A]
- Activity [29]: 39.5%
- Activity [30]: 60.9%
- Activity [31]: 86.5%
- Activity [32]: 89.9%
- IC50 [9]: 18.5 µM
- IC50 [10]: 23.7 µM

Structure (SMILES): CC(C)=CCc1c([C@@H]2CCc3ccc(O)cc3O2)cc2c(c1O)OC(C)(C)C(O)C2O (stereo partly specified) [BROUSSOFLAVAN A]
- Activity [19]: 0%
- Activity [20]: 0%
- Activity [21]: 87.9%
- Activity [22]: 92%
- IC50 [9]: 86.7 µM

Structure (SMILES): CC(=O)Oc1cc(O)c(C(=O)/C=C/c2ccc(OC(C)=O)c(OC(C)=O)c2)cc1CC=C(C)C [BROUSSOCHALCONE TRIACETATE]
- Activity [19]: 9.3%
- Activity [20]: 23.1%
- Activity [21]: 0%
- Activity [22]: 88.4%
- Activity [5]: 9.6%
- Activity [7]: 82.1%
- IC50 [9]: 91.7 µM

Structure (SMILES): CC(C)=CCc1c(-c2oc3c(CC=C(C)C)c(O)cc(O)c3c(=O)c2O)cc(O)c(O)c1CC=C(C)C [BROUSSOFLAVONOL E]
- Activity [5]: 0%
- Activity [6]: 0%
- Activity [7]: 86.4%
- Activity [8]: 91.8%
- IC50 [9]: 39.9 µM

Structure (SMILES): CC(C)=CCc1cc2c(cc1O)O/C(=C\c1ccc(O)c(O)c1)C2=O [BROUSSOAURONE A]
- IC50 [12]: 22.7 mg/L (≈ 67.1 µM)
- Activity [19]: 0%
- Activity [20]: 0%
- Activity [21]: 89.5%
- Activity [22]: 93.7%
- IC50 [9]: 15.4 µM

Structure (SMILES): COc1cc(O)c2c(c1)O[C@H](c1ccc(O)cc1O)CC2=O [ARTOCARPANONE]
- Activity [19]: 0%
- Activity [20]: 1.1%
- Activity [21]: 38.6%
- Activity [22]: 90.2%
- IC50 [9]: 41 µM
- IC50 [10]: 90.7 µM

Structure (SMILES): CC(=O)Oc1ccccc1C(=O)O [ASPIRIN]
- Activity [36]: 39.6%
- Activity [25]: 0%
- Activity [26]: 85.4%
- Activity [27]: 90.5%
- Activity [28]: 91.9%
